Data published in patent US20190262409A1, “NOVEL LACTOBACILLUS SAKEI AND COMPOSITION COMPRISING THE SAME” (CJ Cheiljedang Corporation, priority 2016, published 2019).

Legend:
Assay type in all cases: in vivo
[1] = system: obesity induced mice with high fat diet; experiment: Measurement of size of adipocytes in high fat diet mice; settings: compared to HFD and GC groups; CJLS03 high concentration group (FIG. 13)
From the text: (§1) From the time of arrival, all animals underwent a 6-week induction period, including a one-week acclimation period. The mice were divided into normal diet (negative control) and high fat diet (positive control and experiment group) and each fed, while given feed and water ad libitum for 6 weeks from the day of division (day 0). The CJLS03 according to the present disclosure was grouped according to concentrations (low: 10^8 CFU, medium: 10^9 CFU, high: 10^10 CFU). […]
(§2) For administration, the lactic acid bacteria were homogeneously suspended in PBS and administered in a 10 mL/kg of administration volume twice daily at determined times (10:00 A.M. to 11:00 A.M., 5:00 P.M. to 6:00 P.M.) for 7 weeks, while the control groups were orally administered with the same amount of solvent vehicle (PBS) twice daily for 7 weeks. […]
Measuring the size of adipocytes is well known as an effective method capable of proving the anti-obesity efficacy. […] The adipocyte photos were analyzed using the Scion image program (derived from NIH Image) by calculating an average value of two adipocyte sizes. […]

[2] = system: obesity induced mice with high fat diet; experiment: Autopsy and blood biochemistry examination in high fat diet mice; settings: serum, day 49, 16 h fasted, compared to HFD or GC group (FIG. 9)
From the text: (§3) From the time of arrival, all animals underwent a 6-week induction period, including a one-week acclimation period. The mice were divided into normal diet (negative control) and high fat diet (positive control and experiment group) and each fed, while given feed and water ad libitum for 6 weeks from the day of division (day 0). The CJLS03 according to the present disclosure was grouped according to concentrations (low: 10^8 CFU, medium: 10^9 CFU, high: 10^10 CFU). To measure accurate efficacy, a commercially available FDA-approved anti-obesity drug Orlistat (Product name: Zenical), and a health function food Garcinia cambogia were added as experiment groups in addition to the normal diet control group and high fat diet group, and compared with the anti-obesity function of the lactic acid bacterial.
For administration, the lactic acid bacteria were homogeneously suspended in PBS and administered in a 10 mL/kg of administration volume twice daily at determined times (10:00 A.M. to 11:00 A.M., 5:00 P.M. to 6:00 P.M.) for 7 weeks, while the control groups were orally administered with the same amount of solvent vehicle (PBS) twice daily for 7 weeks. Experimental substances were newly prepared and administered into the A.M. and P.M.-administered strain. All strains were stored under refrigeration so as to retain the active condition thereof, and the PBS which was refrigerated was used for washing strain samples and preparing solutions. The experimental animal of each group was fasted for 16 hours and sacrificed on the termination day of experiment (day 49) to be used for blood biochemistry tests and histological evaluation analysis.
On the day of termination of the experiment according to Example 4-1 (day 49), the experimental animals were sacrificed after stopping their diets for 16 hours and autopsied. All of the experimental animals were subjected to collection of about 500 μL to 700 μL of blood using a heparin-free capillary tube of plexus venosus under an ether inhalation anesthesia. The collected blood was put in an SST tube and coagulated for 30 minutes to 1 hour at room temperature. The blood was then centrifuged at 4° C. and 4000 rpm for 10 minutes to separate the serum followed by storing at −80° C. until the analysis. The amounts of glucose (GLU), triglyceride (TG), total cholesterol (TC), low-density lipoprotein cholesterol (LDL), high-density lipoprotein cholesterol (HDL), glutamate oxaloacetate transaminase (GOT; AST), glutamate pyruvate transaminase (GPT; ALT), CREA (creatinine), and lactate dehydrogenase (LDH) in the separated serum were measured using a blood biochemistry (Accute TBA-40FR, Toshiba Medical System Co., Japan).

[3] = system: obesity induced mice with high fat diet; experiment: Measurement of organ fat weight in high fat diet mice; settings: compared with HFD group (FIGS. 10 and 11)
From the text: as §1, §2
After blood was collected, the visceral examination was carried out to confirm the presence of abnormalities in the internal organs, and the adipose tissues (epididymal fat, subcutaneous fat, mesenteric fat) were extracted. […] The weight of each adipose tissue was measured with an electronic balance. Additionally, the relative tissue weight per 100 g of body weight was calculated based on the body weight fasted before autopsy (calculation formula: relative organ weight (%)=organ weight (g)/fasting body weight before autopsy (g)×100). […]

[4] = system: obesity induced mice with high fat diet; experiment: Histological evaluation of liver tissue (H & E) in high fat diet mice; settings: H & E stained liver sections; CJLS03 high concentration group (FIG. 12)
From the text: as §3
as §2, with “weeks. Experimental substances were newly prepared and administered into the A.M. and P.M.-administered strain.” for “weeks.”
Liver tissues of the ND, HFD, OLS, GC, and high CJLS03 concentration groups were histologically evaluated. […]

CCCCCCCCCCC[C@@H](C[C@@H]1OC(=O)[C@H]1CCCCCC)OC(=O)[C@H](CC(C)C)NC=O [OLS, Orlistat]
sizes of the adipocytes [1]: significantly reduced | concentration of blood HDL [2]: significantly reduce | concentration of blood LDL [2]: significantly reduce | concentration of blood TC (total cholesterol) [2]: significantly reduce | concentration of blood glucose [2]: significantly reduce | fasting weight ([3]; body weight after 16 h fasting before autopsy): lower than those of the HFD group | adipose tissue weights ([3]; epididymal, subcutaneous, mesenteric fat): lower than those of the HFD group | lipid particles in liver tissue [4]: rarely found
